Data: US7994125B2, “Stem cell factor for preventing chemotherapy-induced depletion of blood cells” (Istituto Superiore Di Sanita, priority 2003, dated 2011)

Assays:
[1] = test system: day 7 (pro/basophilic) erythroblasts
Protocol: (§1) FIG. 1. Chemosensitivity of CD34^+ progenitors and erythroid precursors.
(§2) FIG. 2. […] After 24 hours the percentage of cell death was determined by ethidium bromide/acridine orange staining.
(§3) Adult peripheral blood human progenitor cell (HPC) purification and culture. Adult peripheral blood was obtained from male donors after their informed consent and the approval by the Committee for Human Studies. Human CD34^+ precursor cells were purified from peripheral blood by positive selection using the midi-MACS immunomagnetic separation system (Miltenyi Biotec, Bergisch Gladbach, Germany) according to the manufacturer's instructions. CD34^+ precursors were cultured in serum-free medium supplemented with 0.01 U/ml interleukin-3 (IL-3), 0.001 ng/ml GM-CSF and 3 U/ml Epo to induce unilineage erythroid differentiation. […] Cell viability was evaluated by ethidium bromide-acridine orange staining and fluorescence microscopy analysis.^15 The differentiation stage of erythroid precursor cells was evaluated by May-Grünwald-Giemsa staining and cytologic analysis. Ziegler B, Testa U, Condorelli G, Vitelli L, Valtieri M, Peschle C. Unilineage hematopoietic differentiation in bulk and single cell culture. Stem Cells. 1998; 16(suppl 1):51-73. For clonogenetic assay, 10^2 CD34^+ cells and 2×10^2 cells from day 5 or day 7 unilineage erythroid cultures were plated in duplicate in 0.9% methylcellulose containing 40% FCS and saturating concentrations of erythropoietin (3 U/mL), TPO (50 ng/mL), granulocyte macrophage-colony stimulating factor (GM-CSF; 10 ng/mL), M-CSF (250 U/mL), G-CSF (500 U/mL), IL-6 (10 ng/mL), stem cell factor (100 ng/mL), Flt3 ligand (100 ng/mL), and IL-3 (100 U/mL). Colonies were scored after 14 days of culture at 37° C. in a 5% CO2/5% O2/90% N2 humidified atmosphere.

[2] = test system: caspase 3, caspase 7 and caspase 8
Protocol: as §2
(§4) FIG. 4. […] After 48 hours, 4×10^4 cells were washed and replated in standard erythroid medium with or without 100 ng/ml SCF.
Western blotting. For detection of caspases, protein extracts were prepared by resuspending cell pellets in 1% NP40 lysis buffer (20 mM Tris/HCl pH 7.2, 200 mM NaCl, 1% NP40) in the presence of 1 mM phenylmethylsulphonyl fluoride (PMSF) and 2 μg/ml each of leupeptin, aprotinin and pepstatin. Concentration of lysates was determined by the Bradford assay (Bio-Rad Laboratories, Richmond, Calif.) and equal amounts of proteins were used for SDS-PAGE. Samples were analyzed by standard immunoblot procedure and visualized by chemiluminescence (Super Signal West Pico Pierce, Rockford, Ill.). Quantification of protein expression levels was performed with the NIH IMAGE software version 1.62 (by Wayne Rasband, National Institutes of Health, Research Services Branch, NIMH).

CD34+ progenitors = experiment: Chemosensitivity of CD34+ progenitors, cell death by ethidium bromide/acridine orange staining; format: cell-based, human; conditions: CD34+ cells; 24 hours; 1.5 μg/ml cisplatin or 50 ng/ml camptothecin; standard erythroid medium
Text: as §1
(§5) Unilineage hematopoietic differentiation in bulk and single cell culture. Stem Cells. 1998; 16(suppl 1):51-73.
(§6) Nature. […] Unilineage hematopoietic differentiation in bulk and single cell culture. Stem Cells. 1998; 16(suppl 1):51-73).

[3] = test system: day 14 (orthochromatic) erythroblasts; experiment: Chemosensitivity of day 14 erythroblasts, cell death by ethidium bromide/acridine orange staining; format: cell-based; conditions: 24 hours, 1.5 μg/ml cisplatin or 50 ng/ml camptothecin
Text: as §1, §5, §6

CD34 positive cells = experiment: Protection of proliferating CD34 positive cells from chemotherapeutic agents in vitro; format: cell-based
Protocol: as §3

[4] = test system: erythroid and granulocytic precursor cells, uncommitted CD34+ progenitors; experiment: SCF treatment of purified hematopoietic progenitors and precursors exposed to antineoplastic agents; format: cell-based, human
Text: Purified populations of hematopoietic progenitors and precursors are routinarily obtained in our laboratory through purification of […] cells from peripheral blood and culture in serum-free medium with unilineage growth factors. Hematopoietic progenitor cells display different sensitivity to the cytotoxic effect of chemotherapeutic agents depending on their lineage commitment and stage of maturation. […] The protective effects of SCF are achieved by administrating this cytokine before the cytotoxic treatment, during the course of the treatment itself and after the toxic stimulus has been interrupted. […] Importantly, once the toxic stimulus has been removed, SCF-treated cells re-enter the differentiative pathway, maintaining their ability to complete successfully the normal maturation process.

[5] = test system: anti-apoptotic genes belonging to the Bcl-2 family and to the Notch family; experiment: Expression of pro- and anti-apoptotic genes in SCF-treated erythroid precursor cells; format: cell-based, human
Text: In order to elucidate the mechanisms responsible for the protective effect of SCF from chemotherapy-induced cell death, we analysed the expression of pro- and anti-apoptotic genes in SCF-treated erythroid precursor cells. SCF induced an upregulation of anti-apoptotic genes belonging to the Bcl-2 family and to the Notch family, as well as an increase in the levels of several transcription factors involved in the control of cellular proliferation and survival.

day 7 erythroblasts = experiment: Erythroblast recovery and expansion after removal of cisplatin; format: cell-based
Protocol: as §4

[6] = test system: day 7 erythroid culture cells; experiment: Clonogenetic assay of erythroid unilineage culture cells in semisolid medium; format: cell-based, human; conditions: two-days treatment with 100 ng/ml SCF (day 5 to day 7)
Protocol: FIG. 5. […] (A) Clonogenetic assay of CD34^+ cells (day 0) or cells grown in liquid culture and subsequently plated in semisolid medium at day 5 or day 7 of erythroid differentiation. Control cells (day 5 and day 7 Epo) were cultivated in standard erythroid medium before the colony assay, whereas SCF-treated cells (day 7 Epo+SCF) received 100 ng/ml SCF from day 5 to day 7 of liquid culture. (B) Cytofluorimetric analysis of glycophorin A-positive cells in erythroid unilineage culture. Cells were analyzed after five (day 5) or seven days (day 7) of erythroid differentiation in standard erythroid medium (Epo) or in the same medium supplied with 100 ng/ml SCF starting from day 5 (Epo+SCF).
as §5
SCF supports the selective expansion of erythroid cells in unilineage culture conditions after treatment with chemotherapeutic agents. Theoretically, SCF may promote the growth of non-erythroid cells present in small numbers in erythroblastic cultures, and even specifically protect these contaminants from cytotoxic drugs, thus generating a post-chemotherapy population of non-erythroid cells. […]

Bcl-2 and Bcl-XL = experiment: Western blot analysis of Bcl-2 and Bcl-XL levels in day 7 erythroblasts; format: cell-based, human; conditions: erythroblasts treated for two days with 100 ng/ml SCF versus standard erythroid medium
[7] = test system: megakaryocytic precursors; experiment: Chemotherapy-induced cell death of megakaryocytic cells; format: cell-based; conditions: for sensitivity of mature polynucleated megakaryocytic precursors versus day 6 immature precursors: Etoposide 4 micromolar, Daunorubicin 0.5 micromolar or Vincristine 0.5 micromolar
Protocol: Decreased platelet number is a common side effect of chemotherapy. In a separate set of experiments, the protective effect of SCF on chemotherapy-induced cell death was evaluated on megakaryocytic cells, which derive from hematopoietic stem and progenitor cells and give rise to platelets. […] We pretreated immature megakaryocytic precursors at day 4 of differentiation with SCF for 48 hours before exposure to chemotherapeutic agents. SCF was maintained during the exposure to chemotherapic agents.

[8] = in vivo; cited from earlier work

With zVAD-fmk [reference compound] the “effect on chemotherapy-induced erythroblast death” value ([1]; zVAD 40 μM, camptothecin, cisplatin or etoposide, 24 hours) was “abrogated completely” and the “effect on drug-induced caspase activation” value ([2]; zVAD 40 μM, day 7 erythroblasts, 8 hours) was “abolished caspase activation”.
With CC[C@@]1(O)C(=O)OCc2c1cc1n(c2=O)Cc2cc3ccccc3nc2-1 [camptothecin] the “sensitivity to drug-induced apoptosis” value (CD34+ progenitors) was “modest sensitivity”, the “sensitivity to cytotoxic effect of chemotherapeutic agents” value ([1]; day 7 immature erythroblasts, 24 hours, 1.5 μg/ml cisplatin or 50 ng/ml camptothecin, saturating Epo) was “extremely sensitive” and the “sensitivity to cytotoxic effect of chemotherapeutic agents” value [3] was “almost completely resistant”. For the same compound, the “caspase activation by cytotoxic drug” value ([2]; day 7 erythroblasts, 8 hours, 200 ng/ml camptothecin, 3 μg/ml cisplatin or 5 μM etoposide) was “activated caspase 3, 7 and 8”.
With “SCF: haematopoietic growth factor, 18.6 KD, ligand of c-Kit; human recombinant SCF purchased from Peprotech” the “CD34 positive cells surviving” value (CD34 positive cells; 3 micrograms/mL Cisplatin, cells induced to proliferate with interleukin-3 (50 units/mL) and fms-like tyrosine kinase 3 (100 nanograms/mL), treated with SCF) was “about 50%”, the “expansion and clonogenetic output after removal of chemotherapeutic drugs” value (CD34 positive cells; SCF-treated cells, clonogenetic assays) was “able to expand and give rise to all the standard hematopoietic populations” and the “protection of CD34 positive cells from cytotoxic activity of chemotherapeutic agents” value (CD34 positive cells; in vitro, Cisplatin, Etoposide and Daunorubicin) was “protects”. For the same compound, the “protection from death induced by antineoplastic agents” value [4] was “strong protection”, the “expression of anti-apoptotic genes of the Bcl-2 family and Notch family” value [5] was “upregulation” and the “protection of erythroblasts from toxic effects of antineoplastic drugs” value ([1]; 100 ng/ml SCF from day 5 for 48 hours and during exposure, camptothecin, cisplatin or etoposide) was “significantly protected”. For the same compound, the “amount of inactive pro-caspase 3, 7 and 8 versus control erythroblasts” value ([2]; pretreated two days with SCF, 8 hours camptothecin, cisplatin or etoposide) was “significantly higher”, the “proliferative activity after removal of the cytotoxic agent” value (day 7 erythroblasts; SCF day 5-9, 3 μg/ml cisplatin 48 hours, washed, fresh medium) was “regained full proliferative activity” and the “proliferation of survived erythroid cells with SCF maintained after drug removal” value (day 7 erythroblasts; SCF day 5-21, 3 μg/ml cisplatin 48 hours) was “high proliferation rate”. For the same compound, the “survival to cisplatin treatment” value (day 7 erythroblasts; preincubated two days with 100 ng/ml SCF, 3 μg/ml cisplatin for 48 hours) was “enhanced survival”, the “growth of erythroid colonies” value [6] was “significant stimulatory effect” and the “percentage of granulo-monocytic colonies” value [6] was “did not significantly increase”. The “Bcl-2 and Bcl-XL protein levels” value (Bcl-2 and Bcl-XL) was “upregulated”, the “protection of megakaryocytic cells from toxic effects of antineoplastic drugs” value ([7]; 100 ng/ml SCF from day 4 for 48 hours and during exposure, Etoposide, Daunorubicin or Vincristine) was “significantly protected” and the tolerability of administration [8] was “generally well tolerated”.
In the case of COc1cc([C@@H]2c3cc4c(cc3[C@@H](O[C@@H]3O[C@@H]5CO[C@@H](C)O[C@H]5[C@H](O)[C@H]3O)[C@H]3COC(=O)[C@H]23)OCO4)cc(OC)c1O [etoposide], the “sensitivity of mature polynucleated megakaryocytic precursors versus day 6 immature precursors” value [7] is reported as “more resistant”.
With COc1cccc2c1C(=O)c1c(O)c3c(c(O)c1C2=O)C[C@@](O)(C(C)=O)C[C@@H]3O[C@H]1C[C@H](N)[C@H](O)[C@H](C)O1 [Daunorubicin] the “sensitivity of mature polynucleated megakaryocytic precursors versus day 6 immature precursors” value [7] was “more resistant”.
For CC[C@]1(O)C[C@H]2CN(CCc3c([nH]c4ccccc34)[C@@](C(=O)OC)(c3cc4c(cc3OC)N(C=O)[C@H]3[C@@](O)(C(=O)OC)[C@H](OC(C)=O)[C@]5(CC)C=CCN6CC[C@]43[C@@H]65)C2)C1 [Vincristine], the “sensitivity of mature polynucleated megakaryocytic precursors versus day 6 immature precursors” value [7] was “more resistant”, the “death of early megakaryocytic cells” value ([7]; day 6 precursors, Vincristine 0.5 micromolar) was 100% and the “death of late megakaryocytic cells” value ([7]; day 12 precursors, Vincristine 0.5 micromolar) was 20%.
For N.N.[Cl][Pt][Cl] [cisplatin, reference compound], the “death of CD34 positive cells in absence of SCF” value (CD34 positive cells; 3 micrograms/mL Cisplatin, proliferating cells (interleukin-3, fms-like tyrosine kinase 3), no SCF) was “virtually all cells die” and the “sensitivity to drug-induced apoptosis” value (CD34+ progenitors) was “modest sensitivity”.
